{"source": "patent US7019194B2", "about": "“SCCE modified transgenic mammals and their use as models of human disease” (priority 2001, dated 2006)", "tested_on": "scce-transgenic mice", "test": "Scratching behaviour (itch) in scce-transgenic mice for testing of antipruritic agents", "type": "in vivo", "details": "scce-transgenic mice 20-21 weeks; tube feeding, 30 μl of 1 mg/ml mixture (FIG. 8A), 90 μl 7 days later (FIG. 8B); versus sucrose control solution", "protocol": "Scratching behavior of scce-transgenic (#1010) mice. Twenty one mice, (11 transgenes, 5 females; 10 wild type litter mates, 2 females) were observed every fifth day for 45 days, starting when the mice were 5-6 weeks of age. At each observation point mice were transferred to individual cages, and episodes of scratching with hind or front paws were counted during three 5-min periods with 2.5 min lapsing from the transfer to the cage to the first counting, and between counting periods. The results for the three observation periods were pooled and the number of episodes of scratching per min calculated. […]\nTransgenic mice, 18-22 weeks of age, mean weight 24.2 g, were given subcutaneous injections of either 250 μg of the glucocorticoid triamcinolone acetonide in a total volume of 100 μl on day 0, and 100 μg triamcinolone acetonide in a total volume of 100 μl on days 7, 14 and 21, or 100 μl of physiological saline at the same time points. Episodes of scratching were counted in the morning and injections were given in the afternoon. […]\nTransgenic mice 20-21 weeks of age, mean weight […], were given either loratidine in a total volume of 100 μl, or 100 μl of a control solution by means of tube feeding. Episodes of scratching were counted immediately before feeding (0 hours), and then at time points as indicated. […]", "note": "Entries after “also recorded” stand apart in the source; their conditions may differ.", "data": [{"smiles": "CCOC(=O)N1CCC(=C2c3ccc(Cl)cc3CCc3cccnc32)CC1", "note": "[loratidine]", "values": [{"measurement": "effect on itch (frequency of scratching)", "value": "no significant difference in frequency of scratching; also recorded: no statistically significant antipruritic effect; also recorded: no statistically significant differences in frequency of scratching"}]}]}
